Patent publication US9416095B2, “Salts, crystals, complexes, and derivatives of threonine diacetic acid, a process to prepare threonine diacetic acid, and the use thereof” (Akzo Nobel Chemicals International B.V., priority 2013, dated 2016)

Key:
Type in all cases: physicochemical
[1] = Potentiometric titration with FeCl3, iron total sequestering value (Fe-TSV)
Source text: Potentiometric titration of THDA with FeCl3 at pH 3-4 and 11.5 gave the iron total sequestering values (Fe-TSV) of 37.8 and 27.8%, respectively. […] All Fe(III) is bound by THDA at pH 3-4.

[2] = Cyclisation to the 6-oxomorpholine ring-closed form in DMSO-d6/TFA, monitored by 1H NMR; conditions: 30% aqueous disodium salt in DMSO-d6/TFA 80:20 w/w, ambient temperature
Protocol: A 30% aqueous solution of disodium threonine diacetate (129 mg) was mixed well with a DMSO-d6/TFA solution (2761 mg, 80:20 w/w) and changes in the obtained mixture were monitored by ^1H NMR at ambient temperature. The steady state was reached after 40 minutes with a conversion of 90% of THDA to cyclic-THDA.
A 30% aqueous solution of disodium serine diacetate (136 mg) was mixed well with a DMSO-d6/TFA solution (2911 mg, 80:20 w/w) and changes in the obtained mixture were monitored by ^1H NMR at ambient temperature. The steady state was reached after 100 minutes with a conversion of 43% of SerDA to cyclic-SerDA. The above experiments support that THDA can be used in applications that relate to dissolving carbonate or sequestering iron, such as use in the oil field (e.g. dissolving CaCO3 and controlling iron in subterranean treatment), use in a feed, food or micronutrient composition (e.g. complexing iron and calcium for delivery to growing substrates), use in detergents and water treatments (e.g. sequestering calcium from water to soften water and sequestering iron present in stains), and many more uses.

[3] = Dissolving insoluble calcium salts (CaCO3 stirred with THDA.Na3 solution, calcium in filtrate by ICP)
Protocol: A mixture of CaCO3 (1.26 g, […]), 37.8 wt % THDA.Na3 in water (15 g, 18.8 mM), and water (45 g) was vigorously stirred for 6 h. The experiment was performed at room temperature and at 50° C. Samples (1 ml) were taken from the mixture every 0.5 h and filtered through a 0.45 μm filter. The concentration of calcium in the filtered samples was determined using the ICP method.

For `C[C@@H](O)[C@@H](C(=O)O)N(CC(=O)O)CC(=O)O` [THDA, threonine-N,N-diacetic acid], the “iron total sequestering value (Fe-TSV)” value ([1]; pH 3-4) was 37.8%, the “iron total sequestering value (Fe-TSV)” value ([1]; pH 11.5) was 27.8% and the “conversion to cyclic form at steady state” value [2] was 90%. The “time to reach steady state of cyclisation” value [2] was 40 min.

For `C[C@@H](O)[C@@H](C(=O)O)N(CC(=O)O)CC(=O)O.[Na+].[Na+].[Na+]` [THDA.Na3, Trisodium Threonine Diacetate], the “speed of CaCO3 dissolution at 50° C. versus room temperature” value ([3]; 50° C.) was “noticeably faster” and the “dissolution of CaCO3” value ([3]; CaCO3 12.6 mM, THDA.Na3 18.8 mM in water, stirred 6 h, room temperature and 50° C.) was “significant amount”.

With `O=C(O)CN(CC(=O)O)[C@@H](CO)C(=O)O` [SerDA, serine-N,N-diacetic acid, reference compound] the “conversion to cyclic form at steady state” value [2] was 43% and the “time to reach steady state of cyclisation” value [2] was 100 min.
